{
  "source": "paper PMC5058653",
  "about": "“A Fhit-mimetic peptide suppresses annexin A4-mediated chemoresistance to paclitaxel in lung cancer cells” (Oncotarget, 2016)",
  "key": {"[1]": {"tested_on": "A549 cells", "experiment": "A549 tumor xenograft in nude mice, tumor weight", "format": "in vivo, mouse", "conditions": "s.c. A549 xenograft, paclitaxel alone 40 mg/kg single i.v. dose, 48 h, n = 5 mice per group", "method": "We further investigated the in vivo effects of Tat-Fhit 7-13 peptide with or without paclitaxel treatment in a preclinical model of lung cancer, using six groups of mice (n = 5 mice per group). Each group was subcutaneously injected with 1×10^7 A549 cells. When tumors reached the diameter of 15 mm, three groups were treated either with a single administration of 40 mg/kg paclitaxel, or 50 mg/kg Tat-Fhit 7-13 peptide, or both; mice were monitored on a regular basis. The remaining three groups, used as controls, were either left untreated or treated with Tat-Fhit 7-13 scrambled or treated with Tat-Fhit 7-13 scrambled plus paclitaxel; 48 h after treatments, mice were sacrificed and tumors were evaluated by weight.\nFigure 3 Tat-Fhit 7-13 peptide in combination with paclitaxel blocks in vivo tumor formation A., C. Nude mice were subcutaneously injected with […] A549 cells. When tumors reached 15 mm diameter, mice were mock-treated, treated paclitaxel (single IV administration of 40 mg/kg), with scrambled Tat peptide (50 mg/kg) alone or in combination with paclitaxel, with Tat-Fhit 7-13 peptide (50 mg/Kg) alone or in combination with paclitaxel; paclitaxel and peptides were injected in a single administration and mice were monitored on a regular basis. Two days later, mice were sacrificed and tumors were evaluated by percent A. and by weight C.. […]"}, "[2]": {"conditions": "culture medium over adherent cells, 24 h after administration, read-out MALDI mass spectrometry", "source_text": "We tested the stability of our peptides in the culture medium over adherent cells through Mass Spectroemtry-MALDI."}, "[3]": {"target": "T1, Annexin A4 (Homo sapiens, UniProt P09525)", "T1 construct": "endogenous in cells; host or cells: A549 total lysates", "T1 sequence (P09525 1-319)": "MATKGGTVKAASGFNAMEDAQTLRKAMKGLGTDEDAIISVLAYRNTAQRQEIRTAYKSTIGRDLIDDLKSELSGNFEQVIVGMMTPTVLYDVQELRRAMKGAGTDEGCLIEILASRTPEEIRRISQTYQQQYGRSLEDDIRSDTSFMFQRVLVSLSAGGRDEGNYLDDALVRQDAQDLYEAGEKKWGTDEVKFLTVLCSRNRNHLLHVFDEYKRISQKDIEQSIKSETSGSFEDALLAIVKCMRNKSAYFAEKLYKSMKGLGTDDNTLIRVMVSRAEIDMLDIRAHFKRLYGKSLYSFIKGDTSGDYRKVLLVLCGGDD", "experiment": "GST pull-down from A549 total lysates, immunoblot for Annexin 4", "format": "binding", "conditions": "GSH resin beads, 12 h at 4°C", "source_text": "In order to map the region of Fhit protein binding Annexin A4, we cloned downstream GST three truncated FHIT cDNAs, namely TR1 (332 bp), TR2 (212 bp) and TR3 (113 bp), all containing the N-terminus common to the wild-type Fhit protein. TR1, TR2, and TR3 correspond to the 111, 71, and 38 N-terminal aminoacids of Fhit protein, respectively (Figure 1A). Annexin A4 binds wild-type Fhit/GST fusion protein as well as all shorter forms of Fhit fusion proteins, indicating its binding to the N-terminus of Fhit (Figure 1B). In our previous paper, we reported that Fhit/Annexin A4 interaction was only detectable in the presence of DSP [19]. DSP is a cross-linker containing an amine-reactive N-hydroxysuccinimide (NHS); NHS esters react with primary amine group located at lysine (Lys, K) residue sidechain. Since Lys residues are abundant and easily accessible on the hydrophilic surface of most proteins they usually crosslink with high efficiency.\nFigure 1 Fhit peptide interacts with Annexin 4 A. GST-Fhit fusion protein and three deletion mutant proteins. Fhit was deleted from the C-terminal site. B. GST-FHIT plasmids were amplified in BL21 bacteria by stimulation with IPTG […] for 6 h at 30°C. Recombinant GST-Fhit fusion proteins were purified with GSH resin beads and added to A549 total lysates. 12 h after incubation at 4°C, GSH resin beads were washed and proteins eluted. […]"}},
  "note": "No end group written: not given here.",
  "data": [
    {"molecule": "CC(=O)O[C@H]1C(=O)[C@@]2(C)[C@H]([C@H](OC(=O)c3ccccc3)[C@]3(O)C[C@H](OC(=O)[C@H](O)[C@@H](NC(=O)c4ccccc4)c4ccccc4)C(C)=C1C3(C)C)[C@]1(OC(C)=O)CO[C@@H]1C[C@@H]2O", "note": "[paclitaxel]", "values": [
      {"measurement": "tumor wt, % of controls", "setting": "[1]", "result": 60, "unit": "%"}
    ]},
    {"molecule": "YGRKKRRQRRRGLSKQPHI [Tat-Fhit 7-13 scrambled peptide]", "values": [
      {"measurement": "stability in the culture medium", "setting": "[2]", "result": "still stable and undegraded"}
    ]},
    {"molecule": "YGRKKRRQRRRGQHLIKPS [Tat-Fhit 7-13 peptide]", "values": [
      {"measurement": "stability in the culture medium", "setting": "[2]", "result": "still stable and undegraded"}
    ]},
    {"molecule": "wild-type Fhit/GST fusion protein: recombinant full-length Fhit fused to GST, expressed in E. coli BL21", "values": [
      {"measurement": "binding of Annexin A4 (GST pull-down)", "setting": "[3]", "result": "binds"}
    ]}
  ]
}
